Assay results published in US11319299B2, “Substituted carboxamides as inhibitors of WDR5 protein-protein binding” (PROPELLON THERAPEUTICS INC., priority 2016, dated 2022).

Molecular target: WDR5 (Homo sapiens (Human), UniProt P61964)
Test: Surface Plasmon Resonance (SPR) assay, KD and residence time
Type: binding
Settings: surface plasmon resonance (SPR); read-out: WDR5 binding affinity (KD)

| SMILES | Kd [nM] |
| --- | --- |
| C[C@@H]1CN(c2cc(F)c(-c3csc(C(=O)N4CCOCC4)n3)cc2NC(=O)c2c[nH]c(=O)cc2C(F)(F)F)C[C@H](C)N1C [Example 535, N-[4-fluoro-5-[2-(morpholine-4-carbonyl)-1,3-thiazol-4-yl]-2-[(3R,5S)-3,4,5-trimethylpiperazin-1-yl]phenyl]-6-oxo-4-(trifluoromethyl)-1H-pyridine-3-carboxamide] | 2.8 |
| CNc1nccc(-c2cc(NC(=O)c3c[nH]c(=O)cc3C(F)(F)F)c(N3C[C@@H](C)N(C)[C@@H](C)C3)cc2F)n1 [Example 538, N-[4-fluoro-5-[2-(methylamino)pyrimidin-4-yl]-2-[(3R,5S)-3,4,5-trimethylpiperazin-1-yl]phenyl]-6-oxo-4-(trifluoromethyl)-1H-pyridine-3-carboxamide] | 3.02 |
| CNC1CCN(c2cc(F)c(-c3cnc(N4CCOCC4)nc3)cc2NC(=O)c2c[nH]c(=O)cc2C(F)(F)F)CC1 [Example 541, N-[4-fluoro-2-[4-(methylamino)piperidin-1-yl]-5-(2-morpholin-4-ylpyrimidin-5-yl)phenyl]-6-oxo-4-(trifluoromethyl)-1H-pyridine-3-carboxamide] | 7.44 |
| C[C@@H]1CN(c2ccc(-c3cc(NC(=O)c4cn(C)c(=O)cc4C(F)F)c(N4C[C@@H](C)N(C)[C@@H](C)C4)cc3F)cn2)CCO1 [Example 542, 4-(difluoromethyl)-N-[4-fluoro-5-[6-[(2R)-2-methylmorpholin-4-yl]pyridin-3-yl]-2-[(3R,5S)-3,4,5-trimethylpiperazin-1-yl]phenyl]-1-methyl-6-oxopyridine-3-carboxamide] | 5.53 |

The next compounds have a lower Kd than those just listed; values first:

| Kd [nM] | SMILES |
| --- | --- |
| 1.98 | C[C@@H]1CN(c2cc(F)c(-c3csc(C(=O)NC4CCCCC4)n3)cc2NC(=O)c2c[nH]c(=O)cc2C(F)(F)F)C[C@H](C)N1C [Example 533, N-cyclohexyl-4-[2-fluoro-5-[[6-oxo-4-(trifluoromethyl)-1H-pyridine-3-carbonyl]amino]-4-[(3R,5S)-3,4,5-trimethylpiperazin-1-yl]phenyl]-1,3-thiazole-2-carboxamide] |
| 1.31 | C[C@@H]1CN(c2cc(F)c(-c3csc(C(=O)N(C)C4CCCCC4)n3)cc2NC(=O)c2c[nH]c(=O)cc2C(F)(F)F)C[C@H](C)N1C [Example 534, N-cyclohexyl-4-[2-fluoro-5-[[6-oxo-4-(trifluoromethyl)-1H-pyridine-3-carbonyl]amino]-4-[(3R,5S)-3,4,5-trimethylpiperazin-1-yl]phenyl]-N-methyl-1,3-thiazole-2-carboxamide] |
| 1.03 | C[C@@H]1CN(c2cc(F)c(-c3csc(C(=O)N4CCN(C)CC4)n3)cc2NC(=O)c2c[nH]c(=O)cc2C(F)(F)F)C[C@H](C)N1C [Example 536, N-[4-fluoro-5-[2-(4-methylpiperazine-1-carbonyl)-1,3-thiazol-4-yl]-2-[(3R,5S)-3,4,5-trimethylpiperazin-1-yl]phenyl]-6-oxo-4-(trifluoromethyl)-1H-pyridine-3-carboxamide] |
| 0.944 | C[C@@H]1CN(c2cc(F)c(-c3ccnc(NC4CCCCC4)n3)cc2NC(=O)c2c[nH]c(=O)cc2C(F)(F)F)C[C@H](C)N1C [Example 537, N-[5-[2-(cyclohexylamino)pyrimidin-4-yl]-4-fluoro-2-[(3R,5S)-3,4,5-trimethylpiperazin-1-yl]phenyl]-6-oxo-4-(trifluoromethyl)-1H-pyridine-3-carboxamide] |
| 2.56 | C[C@@H]1CN(c2cc(F)c(-c3ccnc(C#N)n3)cc2NC(=O)c2c[nH]c(=O)cc2C(F)(F)F)C[C@H](C)N1C [Example 539, N-[5-(2-cyanopyrimidin-4-yl)-4-fluoro-2-[(3R,5S)-3,4,5-trimethylpiperazin-1-yl]phenyl]-6-oxo-4-(trifluoromethyl)-1H-pyridine-3-carboxamide] |
| 1.8 | C[C@@H]1CN(c2ncc(-c3cc(NC(=O)c4cn(C)c(=O)cc4C(F)(F)F)c(N4CCN(C)[C@@H](C)C4)cc3F)cn2)CCO1 [Example 544, N-[4-fluoro-2-[(3S)-3,4-dimethylpiperazin-1-yl]-5-[2-[(2R)-2-methylmorpholin-4-yl]pyrimidin-5-yl]phenyl]-1-methyl-6-oxo-4-(trifluoromethyl)pyridine-3-carboxamide] |
